Source: PubChem BioAssay (NCI)
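Exposure lasted 48 hours, with cells grown in 96-well plates and compounds tested at five concentrations. The concentration for 50% growth inhibition is given as GI50. TGI: concentration producing complete growth inhibition.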

Legend:
Assay in all cases: inhibition of tumour cell growth, NCI panel, 48 h
NCI-H522 lung = system: NCI-H522 lung
MCF7 breast = system: MCF7 breast
OVCAR-3 ovarian = system: OVCAR-3 ovarian
K-562 leukemia = system: K-562 leukemia
OVCAR-4 ovarian = system: OVCAR-4 ovarian
HOP-62 NSCLC = system: HOP-62 NSCLC
U251 CNS = system: U251 CNS
UACC-257 melanoma = system: UACC-257 melanoma
786-0 renal = system: 786-0 renal
LOX IMVI melanoma = system: LOX IMVI melanoma

Structure (SMILES)	GI50 (NCI-H522 lung) [nM]	TGI (NCI-H522 lung) [nM]	GI50 (MCF7 breast) [nM]	TGI (MCF7 breast) [nM]	GI50 (OVCAR-3 ovarian) [nM]	TGI (OVCAR-3 ovarian) [nM]	TGI (K-562 leukemia) [nM]	GI50 (OVCAR-4 ovarian) [nM]	TGI (OVCAR-4 ovarian) [nM]	GI50 (HOP-62 NSCLC) [nM]	TGI (HOP-62 NSCLC) [nM]	GI50 (U251 CNS) [nM]	TGI (U251 CNS) [nM]	GI50 (UACC-257 melanoma) [nM]	TGI (UACC-257 melanoma) [nM]	GI50 (786-0 renal) [nM]	TGI (786-0 renal) [nM]	GI50 (LOX IMVI melanoma) [nM]	TGI (LOX IMVI melanoma) [nM]	GI50 (K-562 leukemia) [nM]
C[C@]12CC[C@@H](OC(=O)N(CCCl)N=O)C[C@@H]1CC[C@@H]1[C@@H]2CC[C@]2(C)C(=O)CC[C@@H]12	9060	30800	1380	19200	5760	19900	> 100000	14900	53400	5480	27000	851	15700	3990	23900	891	16700	5600	22100	–
N=c1ccc2nc3c(cc(N)c4ccccc43)oc-2c1	190	501	162	342	26.5	83.4	1180	91.9	235	267	798	223	664	271	819	1070	2300	103	378	298
Cc1ccc2sc3ccc(N)cc3c(=O)c2c1	–	> 100000	–	> 100000	–	> 100000	> 100000	–	> 100000	–	> 100000	–	> 100000	–	> 100000	–	> 100000	–	> 100000	–
COc1cc(/C=C2\CN(C(=O)CCN3CCC(=NO)CC3)C/C(=C\c3cc(OC)c(OC)c(OC)c3)C2=O)cc(OC)c1OC	323	1340	382	2440	391	1260	> 100000	733	2150	719	2390	291	1010	510	2440	355	1140	194	472	301
CC(=O)c1cccc(-c2cccc(-c3ccn(CCN4CCOCC4)n3)c2)c1	> 20000	> 20000	> 20000	> 20000	> 20000	> 20000	> 20000	> 20000	> 20000	> 20000	> 20000	> 20000	> 20000	> 20000	> 20000	> 20000	> 20000	> 20000	> 20000	> 20000
Nc1cc2[nH]cnc2c(=O)[nH]1	–	> 215000	–	> 300000	–	92400	> 300000	–	> 300000	–	> 191000	–	> 300000	–	> 300000	–	> 300000	–	> 300000	–
CC[C@]1(O)C[C@@H]2CN(CCc3c([nH]c4ccccc34)[C@@](C(=O)OC)(c3cc4c(cc3OC)N(C)[C@H]3[C@@](O)(C(N)=O)[C@H](O)[C@]5(CC)[C@@H]6C[C@@H]6CN6CC[C@]43[C@@H]65)C2)C1	< 3.33	< 3.33	< 3.33	> 18200	< 3.33	81.8	> 33300	93.1	> 33300	6.94	> 33300	< 3.33	> 33300	> 33300	> 33300	24.7	> 19300	< 3.33	> 33300	< 3.33
C/C(=C(/c1ccc(O)cc1)c1ccc(Cl)cc1)c1ccccc1	739	2800	767	2070	552	1310	2830	660	2610	546	1370	537	1180	822	2770	558	1560	432	788	539
Oc1c(CN2CCCC2)cc(CSCc2ccccc2)c2cccnc12	1140	3770	475	11300	440	2700	10600	456	2470	513	7780	789	11900	2140	7030	728	6090	386	2480	551
CN1c2ccccc2S(=O)(=O)n2c(CCc3ccccc3)nnc21	–	> 100000	–	> 100000	–	> 100000	> 100000	–	> 100000	–	> 100000	–	> 100000	–	> 100000	–	> 100000	–	> 100000	–
CC(C(=O)O)c1ccc(-c2ccccc2)c(F)c1 (centres undefined)	–	> 100000	–	> 100000	–	> 100000	> 100000	–	> 100000	–	> 100000	–	> 100000	–	> 100000	–	> 100000	–	> 100000	–
